Results published in paper PMC8249783, “A novel multikinase inhibitor SKLB‐YTH‐60 ameliorates inflammation and fibrosis in bleomycin‐induced lung fibrosis mouse models” (Cell Proliferation, 2021).
Read-outs that look alike come from different tables or passages of the source.

Assay: Pharmacokinetics study after IV and PO administration to SD rats
Type: in vivo
Conditions: rat, plasma
Experimental: The appropriate amount of YTH‐60 was accurately weighed, added to the final volume of 5% DMSO, 40% PEG400 and 55% normal saline, and vortexed or ultrasonicated to fully mix. Then, 0.4 and 2 mg·mL^−1 of clarified dosing solution was used for intravenous administration and oral gavage administration. SD rats were transferred from the Experimental Animal Library (999 M‐017), Shanghai Xipuer‐Beikai Experimental Animal Co. Ltd. After oral, intravenous or intragastric administration, blood was collected by jugular vein or other suitable methods. Approximately 0.20 mL of each sample was collected, in the presence of heparin sodium as an anticoagulant. After the blood samples were collected, they were placed on ice and centrifuged to separate plasma within 2 hours (centrifugation conditions: centrifugal force 6800 g, 6 minutes, 2‐8°C). The collected plasma samples were stored at −80°C before analysis by LC‐MS/MS‐18. After analysis, the remaining plasma samples were stored at −80°C for a period of 1 month.

[1] = SD, po, 20 mg/kg, PO 20 mg/kg, individual animals 201, 202, 203, read-out: Individual plasma concentration
[2] = SD, po, 20 mg/kg, PO 20 mg/kg, read-out: Mean plasma concentration
[3] = Sprague-Dawley, iv, 2 mg/kg, IV 2 mg/kg, individual animals 101, 102, 103, read-out: Individual plasma concentration
[4] = Sprague-Dawley, iv, 2 mg/kg, IV 2 mg/kg, read-out: Mean plasma concentration
[5] = Sprague-Dawley, po, 20 mg/kg, PO 20 mg/kg, individual animals 201, 202, 203, read-out: Individual plasma concentration
[6] = Sprague-Dawley, po, 20 mg/kg, PO 20 mg/kg, read-out: Mean plasma concentration

SMILES: COc1cc(OC)c(Cl)c(-c2ccc3c(/C=C/c4ccc(N(C)C(=O)CN5CCN(C)CC5)cc4)n[nH]c3c2)c1Cl [YTH‐60, (E)‐N‐(4‐(2‐(6‐(2,6‐dichloro‐3,5‐dimethoxyphenyl)‐1H‐indazol‐3‐yl)vinyl)phenyl)‐N‐methyl‐2‐(4‐methylpiperazin‐1‐yl)acetamide]
- concentration at 6 h [1]: 82.5 ng/mL
- concentration at 6 h [2]: 94.2 ng/mL
- concentration at 8 h [1]: 67.4 ng/mL
- concentration at 8 h [2]: 81.5 ng/mL
- AUC (SD, po, 20 mg/kg, SD rats, 20 mg·kg^−1 oral administration, read-out: mean AUC(0‐t)): 1380 ng·h/mL
- AUC (SD, po, 20 mg/kg, SD rats, p.o. 20 mg·kg^−1, read-out: AUC0‐t): 1380 ± 152 ng·h/mL
- AUC (SD, po, 20 mg/kg, SD rats, p.o. 20 mg·kg^−1, read-out: AUC0‐∞): 1610 ± 177 ng·h/mL
- MRT (SD, po, 20 mg/kg, SD rats, p.o. 20 mg·kg^−1, read-out: MRT0‐t): 8.38 ± 0.31 h
- MRT (SD, po, 20 mg/kg, SD rats, p.o. 20 mg·kg^−1, read-out: MRT0‐∞): 12.4 ± 2.67 h
- concentration at 0.083 h [3]: 355 ng/mL
- concentration at 0.083 h [4]: 380 ng/mL
- concentration at 0.25 h [3]: 187 ng/mL
- concentration at 0.25 h [4]: 187 ng/mL
- concentration at 0.5 h [3]: 153 ng/mL
- concentration at 0.5 h [4]: 149 ng/mL
- concentration at 1 h [3]: 112 ng/mL
- concentration at 1 h [4]: 117 ng/mL
- concentration at 8 h [4]: 25 ng/mL
- concentration at 24 h [3]: 2.27 ng/mL
- concentration at 24 h [4]: 2.82 ng/mL
- concentration at 0.25 h [5]: 33.6 ng/mL
- concentration at 0.25 h [6]: 31.6 ng/mL
- concentration at 0.5 h [5]: 40.6 ng/mL
- concentration at 0.5 h [6]: 33.8 ng/mL
- concentration at 1 h [5]: 35.9 ng/mL
- concentration at 1 h [6]: 32.1 ng/mL
- concentration at 24 h [5]: 24.5 ng/mL
- concentration at 24 h [6]: 19.1 ng/mL
- Cmax (iv, SD rats, i.v. 2 mg·kg^−1): 380 ± 37 ng/mL
- Tmax (iv, SD rats, i.v. 2 mg·kg^−1): 0.08 h
- half-life (iv, SD rats, i.v. 2 mg·kg^−1): 4.92 ± 0.17 h
- clearance (iv, SD rats, i.v. 2 mg·kg^−1, unit inferred): 42.5 mL/min/kg
- Cmax (po, SD rats, p.o. 20 mg·kg^−1): 95.8 ± 16.6 ng/mL
- Tmax (po, SD rats, p.o. 20 mg·kg^−1): 4.67 ± 2.31 h
- half-life (po, SD rats, p.o. 20 mg·kg^−1): 8.03 ± 2.16 h
- bioavailability (po, SD rats, p.o. 20 mg·kg^−1, read-out: F (oral bioavailability)): 17.9 ± 1.97%
